Patent publication US20250213499A1, “COMPOSITION FOR PREVENTING OR TREATING ISCHEMIC STROKE, CONTAINING SOBREROL AS ACTIVE INGREDIENT” (NEUROLMED CO., LTD, priority 2020, published 2025)

System: focal cerebral ischemia induced by middle cerebral artery occlusion and reperfusion (MCAO/R)
Assay: Rodent cerebral ischemia model (MCAO/R): volume of cerebral infarction area by TTC staining
Type: in vivo, mice (C57/BL6)
Conditions: for cerebral infarction volume due to focal cerebral ischemia (FIG. 3): TTC-stained brain slices, ImageJ, *** p<0.001
Procedure: 12- to 13-week-old male mice (C57/BL6) were used in the experiment. The mice were divided into four groups of five each (three in the Sham group): Sham (surgical control group), stroke surgery group (Stroke), stroke+sobrerol-L (administration of 10 mg/kg of SOB-L), and stroke+sobrerol-H (administration of 40 mg/kg of SOB-H). According to the schematic view shown in FIG. 1, middle cerebral artery occlusion and reperfusion operation (MCAO/R) was performed to induce focal cerebral ischemia. After MCAO/R surgery, sobrerol was orally administered at concentrations of 10 mg/kg and 40 mg/kg. In the Sham and Stroke control groups, saline was orally administered. Neurological deficit tests were performed 22-23 hours after MCAO/R (n=5). After re-anesthesia, cardiac reperfusion in mice was carried out with PBS solution, and the brains were immediately removed and stained with 2% TTC (2,3,5-triphenyl-tetrazolium chloride) solution. TTC-stained slices were obtained from the mice in four groups, particularly Sham (surgical control group), stroke surgery group (Stroke), stroke+sobrerol-L (administration of 10 mg/kg of SOB-L), and stroke+sobrerol-H (administration of 40 mg/kg of SOB-H), and the volume of the cerebral infarction area was measured. Quantification was measured using ImageJ.

**Q.** With `CC1=CCC(C(C)(C)O)CC1O` (centres unmarked) [sobrerol, 5-(2-hydroxypropan-2-yl)-2-methylcyclohex-2-en-1-ol] as the molecule, how does the “cerebral infarction volume due to focal cerebral ischemia (FIG. 3)” value (10 mg/kg oral after MCAO/R (sobrerol-L)) read?
**A.** significantly reduced

**Q.** And the “damage status of ischemic brain tissue in TTC-stained slices (FIG. 2)” value (40 mg/kg oral (stroke+sobrerol-H) compared to sobrerol-L, Stroke and Sham groups, red area = undamaged, white = infarction)?
**A.** undamaged

**Q.** And the “cerebral infarction volume due to focal cerebral ischemia (FIG. 3)” value (40 mg/kg oral after MCAO/R (sobrerol-H))?
**A.** significantly reduced

**Q.** What about the “damage status of ischemic brain tissue in TTC-stained slices (FIG. 2)” value (group orally administered sobrerol compared to the other groups, dose not given) of the same molecule?
**A.** red undamaged area without cerebral infarction area

**Q.** What about the infarction size (stroke animal model, compared to the group not administered a stroke drug, dose not stated) of the same molecule?
**A.** decrease
